Measurements as given in article PMC11638965, “Leveraging Dual-Ligase Recruitment to Enhance Protein Degradation via a Heterotrivalent Proteolysis Targeting Chimera” (Journal of the American Chemical Society, 2024).

Legend:
BRD2 [1] = target: T1, BRD2 (Homo sapiens, UniProt P25440); test: Live cell kinetic HiBiT degradation assay, HiBiT-BRD2 HEK293 cells; format: cell-based
T1 construct: HiBiT, is appended to the N-terminus of endogenous BRD2, BRD3, and BRD4; endogenous in cells
Outline: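 HEK293 cells with CRISPR-inserted N-terminal HiBiT on endogenous BRD2 or BRD3, stably expressing LgBiT, equilibrated 3 h with Endurazine at 37 °C, then treated with threefold PROTAC dilution series. Luminescence read every 7 min for 24 h, normalized to pre-read and DMSO; Dmax as lowest signal, rate constant by one-phase exponential decay, Dmax50 from Dmax-concentration fit.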

BRD2 [2] = target: T1, BRD2; test: Western blot dose-response degradation in HEK293 cells; format: cell-based; details: 6 h, mean ± S.E.M. of three experiments, values marked b mean ± S.D. of two
Method: (§1) HEK293 cells were obtained from ATCC. HEK293 was cultured in DMEM supplemented with 10% (v/v) fetal bovine serum (FBS), 1% […] and 1% (v/v) penicillin/streptomycin (pen/strep) at 37 °C, 5% CO2, and 95% humidity.
(§2) HEK293 cells were plated at a density of 5 × 10^5 cells per well of a six well plate a day prior to initiation of the experiment. Compounds were dissolved to a 10 mM concentrated stock solution in DMSO from which the compounds were further diluted to a working concentration range of 1 μM to 100 pM in DMEM and was subsequently added to cells at the initiation of the experiment. An additional vehicle control was added to cells alongside compound treatments. Cells were left to incubate with compound for 6 h at 37 °C, 5% CO2, and 95% humidity. Cells were then subsequently washed twice with PBS before being harvested in RIPA buffer supplemented with protease inhibitor cocktail and Benzonase Nuclease before being store at −20 °C.
(§3) Protein concentration was determined using the BCA assay. Samples were then prepared in LDS buffer containing 5% 1 M DTT and subsequently loaded onto NuPAGE 4–12% Bis-Tris Midi gels, followed by the transfer of the proteins onto nitrocellulose membranes. The membranes were blocked for 1 h prior to incubation with the primary antibodies using 5% Milk TBST. Membranes were incubated at 4 °C in either BRD4(Ab128874), BRD3(Ab50818), BRD2(Ab139690), VHL(CST#68547) and CRBN(CST#71810) primary antibody overnight. Following overnight incubation, the membranes were incubated with complementary IRDye 800CW secondary antibody and a hFAB Rhodamine Anti-Tubulin Primary Antibody (loading control) for 1 h and then imaged with a Bio-Rad imager. All Western blots were analyzed for band intensities using Image Lab (Bio-Rad). The data extracted from these blots were then plotted and analyzed using Prism (v. 10.2.2, GraphPad). Linear regression curve fitting was used to calculate pDC50 values. The standard deviation of the pDC50 was calculated for all compounds that had two independent repeats and the standard error of the mean calculated for all compounds that had three independent repeats. All Western blotting figures were developed in Adobe illustrator.

BRD3 = target: T2, BRD3 (Homo sapiens, UniProt Q15059); test: as above; format: cell-based; details: 6 h, mean ± S.E.M. of three experiments, values marked b mean ± S.D. of two
T2 construct: HiBiT, is appended to the N-terminus of endogenous BRD2, BRD3, and BRD4; endogenous in cells
T2 sequence (Q15059 whole entry): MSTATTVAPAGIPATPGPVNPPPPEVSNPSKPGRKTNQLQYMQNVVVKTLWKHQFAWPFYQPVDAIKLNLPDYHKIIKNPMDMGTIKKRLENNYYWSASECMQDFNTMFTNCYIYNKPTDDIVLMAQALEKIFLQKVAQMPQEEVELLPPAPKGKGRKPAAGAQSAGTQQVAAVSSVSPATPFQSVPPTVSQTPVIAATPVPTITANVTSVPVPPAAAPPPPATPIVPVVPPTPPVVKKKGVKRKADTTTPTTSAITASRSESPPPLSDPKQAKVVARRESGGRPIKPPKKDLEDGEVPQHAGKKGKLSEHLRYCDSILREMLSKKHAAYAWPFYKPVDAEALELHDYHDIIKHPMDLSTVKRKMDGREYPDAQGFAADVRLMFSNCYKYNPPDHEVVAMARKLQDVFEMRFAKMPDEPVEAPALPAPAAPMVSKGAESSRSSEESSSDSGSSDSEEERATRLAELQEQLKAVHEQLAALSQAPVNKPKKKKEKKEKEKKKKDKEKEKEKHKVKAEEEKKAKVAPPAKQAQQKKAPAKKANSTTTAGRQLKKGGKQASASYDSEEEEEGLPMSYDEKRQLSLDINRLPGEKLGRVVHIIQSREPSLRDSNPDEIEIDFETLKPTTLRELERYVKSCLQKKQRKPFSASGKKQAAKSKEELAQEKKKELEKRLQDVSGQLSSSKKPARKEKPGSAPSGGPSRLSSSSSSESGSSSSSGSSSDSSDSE
Method: as §1, §2, §3

BRD4^Long = target: T3, BRD4^Long (Homo sapiens, UniProt O60885); test: as above; format: cell-based; details: HEK293 cells, 6 h, Western blot; mean ± S.E.M. of three experiments, values marked b mean ± S.D. of two
T3 construct: Western blot data for BET, CRBN and VHL protein levels; endogenous in cells; host or cells: HEK293 (ATCC)
Method: as §1, §2, §3

BRD4^Short = target: T4, BRD4^Short (Homo sapiens, UniProt O60885); test: as above; format: cell-based; details: 6 h, mean ± S.E.M. of three experiments, values marked b mean ± S.D. of two
T4 construct: Western blot data for BET, CRBN and VHL protein levels; endogenous in cells; host or cells: HEK293 (ATCC)
Method: as §1, §2, §3

K562 cells = test: Cell viability assay (CellTiter-Glo); format: cell-based, human; details: Homo sapiens; WT K562, 5.12 pM to 10 uM, n = 3 (Table S4)
KBM7 cells = test: Cell viability assay (CellTiter-Glo); format: cell-based, human; details: Homo sapiens, KBM-7; WT KBM7, 5.12 pM to 10 uM, n = 3 (Table S4)
CRBN = CRBN (Homo sapiens, UniProt Q96SW2); test: Western blot dose-response degradation in HEK293 cells; format: cell-based; design: Western blot data for BET, CRBN and VHL protein levels; endogenous in cells; host or cells: HEK293 (ATCC); details: HEK293 cells, 6 h, Western blot; mean ± S.E.M. of three experiments, values marked b mean ± S.D. of two
Sequence of CRBN (Q96SW2 whole entry): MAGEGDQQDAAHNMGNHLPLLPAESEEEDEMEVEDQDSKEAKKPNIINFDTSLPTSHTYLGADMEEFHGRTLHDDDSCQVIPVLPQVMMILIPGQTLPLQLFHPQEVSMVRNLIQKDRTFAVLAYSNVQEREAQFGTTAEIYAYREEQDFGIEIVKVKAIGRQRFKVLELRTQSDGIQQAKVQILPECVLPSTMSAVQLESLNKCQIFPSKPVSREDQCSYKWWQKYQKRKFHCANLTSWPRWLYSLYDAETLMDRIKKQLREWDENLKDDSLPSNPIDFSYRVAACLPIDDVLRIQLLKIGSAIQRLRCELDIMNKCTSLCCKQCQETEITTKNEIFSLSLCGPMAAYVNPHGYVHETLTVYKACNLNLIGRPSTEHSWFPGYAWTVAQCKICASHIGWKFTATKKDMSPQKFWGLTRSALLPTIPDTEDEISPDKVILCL
Method: as §1, §2, §3

T1 sequence (P25440 whole entry): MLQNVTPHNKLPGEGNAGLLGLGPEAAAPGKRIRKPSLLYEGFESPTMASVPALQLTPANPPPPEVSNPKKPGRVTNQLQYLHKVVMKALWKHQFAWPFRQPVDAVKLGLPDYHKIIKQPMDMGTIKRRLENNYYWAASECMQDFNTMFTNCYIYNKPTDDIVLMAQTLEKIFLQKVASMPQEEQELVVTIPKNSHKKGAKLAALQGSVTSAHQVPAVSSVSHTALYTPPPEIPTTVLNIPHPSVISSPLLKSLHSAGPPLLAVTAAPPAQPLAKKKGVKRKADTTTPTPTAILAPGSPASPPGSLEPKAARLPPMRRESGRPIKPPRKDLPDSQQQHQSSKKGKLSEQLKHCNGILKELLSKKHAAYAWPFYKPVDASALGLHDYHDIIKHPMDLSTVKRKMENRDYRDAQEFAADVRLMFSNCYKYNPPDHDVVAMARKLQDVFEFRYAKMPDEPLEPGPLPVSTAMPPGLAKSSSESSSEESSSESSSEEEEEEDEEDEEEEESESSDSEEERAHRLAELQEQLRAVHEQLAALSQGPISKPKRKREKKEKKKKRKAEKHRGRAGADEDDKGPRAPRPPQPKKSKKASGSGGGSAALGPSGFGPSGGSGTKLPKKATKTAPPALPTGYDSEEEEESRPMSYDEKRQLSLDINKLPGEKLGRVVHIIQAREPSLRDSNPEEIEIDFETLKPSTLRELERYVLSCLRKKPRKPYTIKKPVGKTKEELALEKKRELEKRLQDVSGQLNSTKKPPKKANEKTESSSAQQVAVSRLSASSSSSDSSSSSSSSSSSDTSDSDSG

DC50 (BRD2 [1]; HiBiT-BRD2 CRISPR knock-in HEK293 cells, live cell kinetic degradation, 24 h, read-out: Dmax 50 BRD2): 4.7 nM
λmax BRD2 (degradation rate) (BRD2 [1]; HiBiT-BRD2 knock-in HEK293 cells): 1.72 h⁻¹
DC50 (BRD2 [2]): 14 ± 4.6 nM
DC50 (BRD3): 4.8 ± 2.4 nM
DC50 (BRD4^Long): 0.76 ± 0.1 nM
DC50 (BRD4^Short): 3.2 ± 0.9 nM
EC50 (K562 cells): 74.1 nM
DC50 (CRBN): 200 ± 31 nM
SMILES: Cc1ncsc1-c1ccc(CNC(=O)[C@@H]2C[C@@H](O)CN2C(=O)[C@@H](NC(=O)COCC(C)(COCCOCCOCCNc2cc3c(cc2F)C(=O)N(C2CCC(=O)NC2=O)C3=O)COCCOCCOCCOC(=O)C[C@@H]2N=C(c3ccc(Cl)cc3)c3c(sc(C)c3C)-n3c(C)nnc32)C(C)(C)C)cc1 (mixture of isomers) [AB3063 (26), (17S)-11-((2-(2-(2-((2-(2,6-dioxopiperidin-3-yl)-6-fluoro-1,3-dioxoisoindolin-5-yl)amino)ethoxy)ethoxy)ethoxy)methyl)-17-((2S,4R)-4-hydroxy-2-((4-(4-methylthiazol-5-yl)benzyl)carbamoyl)pyrrolidine-1-carbonyl)-11,18,18-trimethyl-15-oxo-3,6,9,13-tetraoxa-16-azanonadecyl 2-((S)-4-(4-chlorophenyl)-2,3,9-trimethyl-6H-thieno[3,2-f][1,2,4]triazolo[4,3-a][1,4]diazepin-6-yl)acetate]
EC50 (KBM7 cells): 21.2 nM
